As a reminder, the GI50 is the concentration giving 50% growth inhibition.

The record followed here is patent publication US20230035892A1, “METHODS AND COMPOSITIONS FOR TREATING CANCER” (Flagship Pioneering Innovations V, Inc., priority 2019, published 2023).

Read-outs that look alike come from different tables or passages of the source.

Common to all, as to assay type: cell-based
The test system of data set [1] is PAXF1657 stably overexpressing GRK2 cDNA. The data set can be described thus: 7-day CellTiter-Glo anti-proliferative assay. The conditions noted are these: PAXF1657, sgNTC, pReceiver-GRK2, 5 or 10 point dose curve; for Emax: 168 h, read-out: Maximum % Growth inhibition relative to DMSO, geometric mean; for GI50: read-out: GI50, geometric mean. On the procedure: (§1) Cell lines were seeded into tissue culture treated, white-walled, 96-well plates at a density of 500 cells/well in RPM11640 media supplemented with 10% H.I. FBS and penicillin/streptomycin. Plates were incubated overnight at 37° C., 5% CO2 to allow cells to adhere to the wells. GRK2 small molecule antagonists were added to the cells using a ten-point or five-point dilution series with a final concentration ranging from […] in 0.1% DMSO. At the time of compound addition, a set of plates that were not treated with compounds were collected and cell viability was measured using CellTiter-Glo (Promega). CellTiter-Glo reagent was added to the plates and luminescence was measured using a Biotek Synergy plate reader. The compound treated cells were incubated for 3 days at 37° C., 5% CO2. The media was then aspirated from each well and replaced with fresh media containing GRK2 small molecule antagonists. The compound treated cells were then incubated for another 4 days at 37° C., 5% CO2 and cell viability was assessed at the end of the 7-day compound treatment by CellTiterGlo.
A general note: Cellular ATP, detected with luciferase, serves as a proxy for viable cell number.

For data set [2], the system named is PAXF1657 control empty vector. The data set can be described thus: 7-day CellTiter-Glo anti-proliferative assay. The conditions noted are these: for Emax: 168 h, read-out: Maximum % Growth inhibition relative to DMSO, geometric mean; for GI50: read-out: GI50, geometric mean. On the procedure: as §1
For data set [3], the system named is PAXF1657 stable clone of GRK2 knockout. The experiment in a line: 7-day CellTiter-Glo anti-proliferative assay. The note with it: PAXF1657, sgGRK2 #2 clonal KO, no cDNA, 10 point dose curve; for GI50: read-out: GI50, geometric mean. On the procedure: as §1
A further data set concerns PAXF1657. The experiment in a line: RFP/GFP competition assay, doxycycline-induced GRK2 knockout. On the procedure:
(§2) Next, experiments were performed to evaluate whether GRK2 knockout induced by doxycycline treatment results in a proliferation defect in pancreatic cancer cells. Pancreatic cancer cell lines expressing GRK2 sgRNAs as well as RFP were plated in a ratio of 1:1 with GFP expressing pancreatic cancer cells. Co-plated cells were cultured in the presence or absence of 100 ng/ml doxycycline over the course of 21 days, and the percentage of GFP and RFP-expressing cells was measured over time.

Data set [4] concerns Grk2 protein. The data set can be described thus: Western Blot of Grk2 levels in PAXF1657 lines re-expressing cleavage-resistant Grk2 wild-type or kinase-dead cDNA. The conditions noted are these: PAXF1657 expressing the sgRNA, cDNA Empty vector; for GRK2/GAPDH / GRK2 Adj. Vol. (Int): +dox. An excerpt: (§3) To test whether the Grk2 sgRNAs act through targeting Grk2, and to test whether the anti-proliferative effect results from loss of the Grk2 kinase activity, Grk2 sgRNA expressing PAXF1657 cell lines overexpressing Cas9/sgRNA-cleavage-resistant Grk2 wild-type or kinase-dead cDNA constructs were generated. Re-expression of Cas9/sgRNA-cleavage-resistant Grk2 wild-type or kinase-dead cDNA constructs led to increased Grk2 protein levels, as measured by Western Blot analysis and shown in Table 18.
Background: Immunoblotting shows a protein as a band on a membrane.

In data set [5] the test system is sgGrk2-expressing PAXF1657 cells. The data set can be described thus: Colony formation assay in sgGrk2-expressing cells (target specificity). The note with it: PAXF1657, DMSO treatment; for Rel +dox: sgRNA induced (+dox). On the procedure:
To assess the target specificity of the GRK2 small molecule antagonist of Formula III-26, sgGRK2-expressing cells were treated with the compound of Formula III-26. If GRK2 knockout is complete and the compound of Formula III-26 inhibits only GRK2, the addition of the compound of Formula III-26 should not induce any additional growth defect compared to sgRNA KO alone. […] This is potentially due to the lower GRK2 knockout efficiency that can be achieved in PAXF1657 compared to Miapaca2, as shown in Table 16.

Data set [6] concerns Grk2 protein. The data set can be described thus: Western Blot of Grk2 levels after doxycycline-induced sgRNA expression. The note with it: PAXF1657, day 7, +dox. On the procedure:
To validate the findings from the CRISPR screen, Cas9-expressing pancreatic cell lines were generated that express doxycycline inducible sgRNAs targeting GRK2. Treatment of these cells with 100 ng/ml doxycycline for 3, 7 or 10 days induced a time-dependent depletion of Grk2 protein, confirming the on-target efficacy of the sgRNAs.

In another data set the test system is PAXF1657 cells. The experiment in a line: Growth (RFP/GFP ratio) of sgGrk2 PAXF1657 lines re-expressing Grk2 wild-type or kinase-dead cDNA. The conditions noted are these: for sgRNA-induced growth inhibition on re-expression of Grk2 wild-type cDNA: cleavage-resistant Grk2 wild-type cDNA. On the procedure:
as §2, §3

Setting [7] is: PAXF1657, sgNTC, pReceiver-empty vector, 5 or 10 point dose curve.
[8] abbreviates: PAXF1657, day 3, 100 ng/ml doxycycline.
Where [9] appears, read: PAXF1657, day 7, 100 ng/ml doxycycline.
[10] abbreviates: PAXF1657, day 10, 100 ng/ml doxycycline.
[11] abbreviates: PAXF1657, day 14, 100 ng/ml doxycycline.
[12] abbreviates: PAXF1657, day 17, 100 ng/ml doxycycline.
Where [13] appears, read: PAXF1657, day 21, 100 ng/ml doxycycline.

In the case of `O=C(NCc1cc[nH]n1)c1cc([C@@H]2CCNC[C@H]2COc2ccc3c(c2)OCO3)ccc1F` [Compound of Formula II-26], the Emax in data set [1] came to 25.5%; in data set [2] (setting [7]), 43.3%. Besides, the figures for the GI50 in data set [1] and in data set [2] were greater than 10 µM and 1.49 µM, respectively.
Take `Fc1ccc([C@@H]2CCNC[C@H]2COc2ccc3[nH]ncc3c2)cc1CNCc1ccn[nH]1` [Compound of Formula II-33]: the Emax in data set [1] amounted to 0%; in data set [2] (setting [7]), 42.7%. In addition, the figures for the GI50 in data set [1] and in data set [2] (setting [7]) were greater than 10 µM and 6.27 µM, respectively.
`O=C(NCc1[nH]nc2ccccc12)c1cc([C@@H]2CCNC[C@H]2COc2ccc3c(c2)OCO3)ccc1F` [Compound of Formula II-35]: the GI50 in data set [2] (setting [7]) amounted to 3.37 µM.
For the compound `COc1ccccc1CNC(=O)c1cccc(NCc2nnc(-c3ccncc3)[nH]2)c1` [Compound of Formula III-28], in data set [1], the Emax came to 64.7% and the GI50 stood at 14.7 µM. Also, in data set [3], the “Maximum % Growth inhibition relative to DMSO, geometric mean” value is listed as 78.8% and the GI50 came out at 17.9 µM. Further, in data set [2] (setting [7]), the Emax is 76.8% and the GI50 is 0.653 µM.
Take `O=C(NCc1ccccc1)c1cccc(NCc2nnc(-c3ccncc3)[nH]2)c1` [Compound of Formula III-30]: in data set [1], the Emax came to 65.5% and the GI50 stood at 3.4 µM. In addition, in data set [3], the “Maximum % Growth inhibition relative to DMSO, geometric mean” value was determined as 63.5% and the GI50 was greater than 30 µM. Moreover, in data set [2] (setting [7]), the Emax was 73.1% and the GI50 was 4.91 µM.
For `Cn1c(CNc2cccc(C(=O)NCc3c(F)cccc3F)c2)nnc1-c1ccncn1` [Compound of Formula III-31], in data set [1], the Emax was found to be 29.8% and the GI50 is greater than 10 µM. In data set [2] (setting [7]), the Emax is 31.6% and the GI50 is greater than 10 µM.
Take `CCCn1c(CNc2cccc(C(=O)NCc3ccccc3C(F)(F)F)c2)nnc1-c1ccncn1` [Compound of Formula III-35]: the Emax stood at 81.4% in data set [1] and 83.6% in data set [2] (setting [7]). Also, the GI50 in data set [1] turned out to be 0.614 µM; in data set [2] (setting [7]), 0.68 µM.
On the same counts, the results for `O=C(NCc1ccccc1C(F)(F)F)c1cccc(NCc2nnc(-c3ccncc3)n2CCO)c1` [Compound of Formula III-54] are 87.3%, 89%, 2.71 µM and 2.52 µM.
On the same counts, the results for `O=C(NCc1ccccc1C(F)(F)F)c1cccc(NCc2nnc3n2CCOc2cnccc2-3)c1` [Compound of Formula III-55] are 85.9%, 82.3%, 0.17 µM and 0.11 µM.
On the same counts, the results for `O=C(NCc1c(F)cccc1F)c1cccc(NCc2nnc3n2CCOc2cnccc2-3)c1` [Compound of Formula III-56] are 28.3%, 46.5%, greater than 10 µM and greater than 10 µM.
For “sgGrk2-2: "sgGrk2-2 (SEQ ID NO: 3)"; "doxycycline inducible sgRNAs targeting GRK2" (guide GGTCCCGGTAGACCACGAAG; expressed or natural sequence)”, the “RFP/GFP ratio +dox normalized to RFP/GFP ratio −dox” value was 1.00 with PAXF1657 (setting [8]); 0.89 with PAXF1657 (setting [9]); 0.76 in the data set with PAXF1657 (setting [10]); 0.69 in the data set on PAXF1657 (setting [11]); 0.57 in the data set on PAXF1657 (setting [12]); 0.44 in the data set on PAXF1657 (setting [13]). The “GRK2/GAPDH normalized to −dox” value in the data set on Grk2 protein [4] was −0.24; in the data set on Grk2 protein [6] it was 0.20. The same compound had a GRK2/GAPDH in the data set with Grk2 protein [4] of −0.01. The “GRK2 Adj. Vol. (Int)” value in the data set with Grk2 protein [4] is recorded as −189,385.63. In addition, in data set [5], the “Difference between rel +dox and −dox signal” value stood at 0.21. Further, the “Rel +dox” value in data set [5] is recorded as 0.79. In the data set on Grk2 protein [6], the GRK2/GAPDH ratio was determined as 0.06. Also, in the data set on Grk2 protein [6], the “GRK2 Avg. Intensity” value is on record as 2,133,921.03. In addition, the “sgRNA-induced growth inhibition on re-expression of Grk2 kinase-dead cDNA” value with PAXF1657 cells (cleavage-resistant Grk2 kinase-dead cDNA) was “did not”. In addition, the “sgRNA-induced growth inhibition on re-expression of Grk2 wild-type cDNA” value in the data set with PAXF1657 cells was “reduced the sgRNA-induced growth inhibition”.
With “sgGrk2-3: "sgGrk2-3 (SEQ ID NO: 4)"; "doxycycline inducible sgRNAs targeting GRK2" (guide GCACCCCAGAGAGAACCAGT; expressed or natural sequence)”, the “RFP/GFP ratio +dox normalized to RFP/GFP ratio −dox” value is reported as 0.92 in the data set with PAXF1657 (setting [8]); 0.83 with PAXF1657 (setting [9]); 0.64 in the data set on PAXF1657 (setting [10]); 0.44 in the data set with PAXF1657 (setting [11]); 0.27 with PAXF1657 (setting [12]); 0.24 in the data set on PAXF1657 (setting [13]). Also, the “GRK2/GAPDH normalized to −dox” value is recorded as −2.47 in the data set on Grk2 protein [4] and 0.28 in the data set on Grk2 protein [6]. Further, the GRK2/GAPDH with Grk2 protein [4] was −0.04. In the data set on Grk2 protein [4], the “GRK2 Adj. Vol. (Int)” value was −514,147.69. Moreover, the “Difference between rel +dox and −dox signal” value in data set [5] is on record as 0.36. Moreover, in data set [5], the “Rel +dox” value was determined as 0.64. Moreover, the GRK2/GAPDH ratio in the data set with Grk2 protein [6] is 0.16. Besides, the “GRK2 Avg. Intensity” value with Grk2 protein [6] is given as 2,026,964.66. For the same compound, the “sgRNA-induced growth inhibition on re-expression of Grk2 wild-type cDNA” value in the data set with PAXF1657 cells is “less efficient”.
